Source: patent US8968883B2, “Chrysene derivative materials” (E I du Pont de Nemours and Company, priority 2009, dated 2015)
Converted amounts (≈) assume the structure as drawn.

Assay: Solubility in processing solvents (Table 1, Compound Properties)
Assay type: physicochemical
Details: for Solubility anisole: solvent anisole; for Solubility toluene: solvent toluene
Description: It is also noted that solubility of the chrysene derivative materials in processing solvents can be adjusted to satisfy solution processing requirements. In some embodiments the solubility of chrysene derivatives in toluene and anisole is higher than 20 mg per ml of solvent. High solubility allows for better solution processing of electroactive devices.

Row | Compound | Solubility anisole | Solubility toluene | solubility properties (compared with compound C1 of Table 1)
1 | c1ccc(-c2ccc(N(c3ccc(-c4cccc(-c5ccccc5)c4)cc3)c3ccc4ccc5c6ccccc6ccc5c4c3)cc2)cc1 [Compound C1] | 23.9 mg/mL (≈ 38.3 mM) | 24.6 mg/mL (≈ 39.4 mM) | 
2 | [2H]c1c([2H])c([2H])c(-c2c([2H])c([2H])c(N(c3c([2H])c([2H])c(-c4c([2H])c([2H])c([2H])c(-c5c([2H])c([2H])c([2H])c([2H])c5[2H])c4[2H])c([2H])c3[2H])c3c([2H])c([2H])c4c([2H])c([2H])c5c6c([2H])c([2H])c([2H])c([2H])c6c([2H])c([2H])c5c4c3[2H])c([2H])c2[2H])c([2H])c1[2H] [Compound C2, Perdeutero-N-([1,1′-biphenyl]-4-yl)-N-([1,1′:3′,1″-terphenyl]-4-yl)chrysen-3-amine] |  |  | very similar to those of compound C1
3 | CC(C)(C)c1ccc(N(c2ccc(-c3ccccc3)cc2)c2ccc3ccc4c5ccccc5ccc4c3c2)cc1 [Compound C3, N-(biphenyl-4-yl)-N-(4-tert-butylphenyl)chrysene-3-amine] | 22.4 mg/mL (≈ 42.4 mM) | 22.2 mg/mL (≈ 42.1 mM) | 
4 | Cc1ccc(N(c2ccc(-c3ccc(-c4ccccc4)cc3)cc2)c2ccc3ccc4c5ccccc5ccc4c3c2)c(C)c1 [Compound C4] | 3.6 mg/mL (≈ 6.25 mM) | 1.0 mg/mL (≈ 1.74 mM) | 
5 | c1ccc(-c2ccc(N(c3ccc(-c4cccc5ccccc45)cc3)c3ccc4ccc5c6ccccc6ccc5c4c3)cc2)cc1 [Compound C5] | 23.7 mg/mL (≈ 39.6 mM) | 24.4 mg/mL (≈ 40.8 mM) | 
